The text below walks through data of patent US10844057B2, “Process for preparing JAK inhibitors and intermediates thereof” (priority 2018, dated 2020).

The test system of data set [1] is TSLP-evoked TARC release in human peripheral blood mononuclear cells. The data set is described as follows: Inhibition of TSLP-evoked TARC release in human peripheral blood mononuclear cells. Format: cell-based. Conditions: human PBMC, 3 to 5 donors, TSLP 10 ng/mL, 48 hours, ELISA; read-out: pIC50 ± st. dev., inhibition of TSLP-evoked TARC release (converted). The source says:
Assay 4: Inhibition of TSLP-Evoked TARC Release in Human Peripheral Blood Mononuclear Cells
Thymic stromal lymphopoietin (TSLP) and thymus and activation-regulated chemokine (TARC) are overexpressed in asthmatic airways, and correlate with disease severity. In the lungs, TSLP may be released by bronchial epithelial cells in response to allergens and viral infections. TSLP signals through an IL-7Rα/TSLPR heterodimer found in a broad range of tissues and cell types, including epithelial cells, endothelial cells, neutrophils, macrophages, and mast cells. The binding of TSLP to its receptor induces a conformational change that activates JAK1 and JAK2 to phosphorylate various transcription factors, including STAT3 and STAT5. In immune cells, this triggers a cascade of intracellular events that result in cell proliferation, anti-apoptosis, dendritic cell migration, and production of Th2 cytokines and chemokines. In peripheral blood mononuclear cells (PBMC), TSLP has a proinflammatory effect by activating myeloid dendritic cells to attract and stimulate T cells, a process mediated by the chemoattractant TARC.
The potencies of the test compounds were measured for inhibition of TARC release.
PBMC aliquots (previously isolated from whole blood and frozen in aliquots at −80° C.) from 3 to 5 donors were thawed at 37° C. and added dropwise to 40 mL pre-warmed, sterile-filtered, complete RPMI media in 50 mL Falcon tubes. Cells were pelleted and resuspended in complete media at 2.24×10^6 cells/mL. […] Cells were allowed to rest for 1 hour at 37° C. with 5% CO2.
Compounds were received as 10 mM stock solutions in DMSO. 3.7-fold serial dilutions were performed to generate 9 concentrations of test compound in DMSO at 300× the final assay test concentration. […] 95 μL of 0.2% DMSO in complete media was added to the untreated control wells. Cells were pre-treated with compound for 1 hour at 37° C. with 5% CO2 prior to stimulation.
Immediately prior to use, an aliquot was thawed and prepared at 20× the final assay concentration in complete media. 10 μL of 20×TSLP was added to each well of PBMC, for a final assay concentration of 10 ng/mL. 10 μL of complete media was added to the unstimulated control wells. Cells were stimulated in the presence of compound for 48 hours at 37° C. with 5% CO2.
Following stimulation, the cell culture supernatants were harvested and TARC levels were detected by enzyme-linked immunosorbent assay (ELISA), using Human CCL17/TARC Quantikine ELISA Kit (R&D Systems # DDN00) according to the manufacturer's instructions.
For dose response analysis, the log [test compound (M)] was plotted versus the percent response values for each donor, and IC50 values were determined using a nonlinear regression analysis with GraphPad Prism Software using the 4-parameter sigmoidal dose-response algorithm with variable slope. Data are expressed as mean pIC50 (negative decadic logarithm IC50) values calculated from pIC50 values of individual donors and rounded to one decimal place.

Data set [2] can be described thus: Lung and plasma exposure in mice after oral aspiration. Format: in vivo. Conditions: mouse, other: oral aspiration, 50 µg/animal; for concentration at 5 h: Balb/c mice, 1 mg/mL, 50 μL via oral aspiration. The procedure:
Adult Balb/c mice from Harlan were used in the assay. […] Animals were placed in lateral recumbency post dose and monitored for full recovery from anesthesia before being returned to their home cage. Four hours later, animals were once again briefly anesthetized and challenged with either vehicle or IL-13 (0.03 μg total dose delivered, 50 μL total volume) via oral aspiration before being monitored for recovery from anesthesia and returned to their home cage. One hour after vehicle or IL-13 administration, whole blood and lungs were collected for both pSTAT6 detection in lung homogenates using a Perkin Elmer AlphaLISA® SureFire® Ultra™ HVp-STAT6 (Tyr641) assay kit and for total drug concentration analysis in both lung and plasma. Blood samples were centrifuged (Eppendorf centrifuge, 5804R) for 4 minutes at approximately 12,000 rpm at 4° C. to collect plasma. […] Plasma and lung levels of test compound were determined by LC-MS analysis against analytical standards constructed into a standard curve in the test matrix. A lung to plasma ratio was determined as the ratio of the lung concentration in ng/g to the plasma concentration in ng/mL at 5 hours.

A further data set concerns the target Tyk2 (Homo sapiens (Human), UniProt P29597). The data set is described as follows: Biochemical JAK kinase assay (LanthaScreen), Tyk2. Particulars: converted from pIC50 using Cheng-Prusoff; ATP 10 μM. The method, then:
Assay 1: Biochemical JAK Kinase Assays
A panel of four LanthaScreen JAK biochemical assays (JAK1, 2, 3 and Tyk2) were carried in a common kinase reaction buffer (50 mM HEPES, pH 7.5, 0.01% Brij-35, 10 mM MgCl2, and 1 mM EGTA). Recombinant GST-tagged JAK enzymes and a GFP-tagged STAT1 peptide substrate were obtained from Life Technologies.
Serially diluted compounds were pre-incubated with each of the four JAK enzymes and the substrate in white 384-well microplates (Corning) at ambient temperature for 1 h. ATP was subsequently added to initiate the kinase reactions in 10 μL total volume, with 1% DMSO. […] Kinase reactions were allowed to proceed for 1 hour at ambient temperature before a 10 μL preparation of EDTA (10 mM final concentration) and Tb-anti-pSTAT1 (pTyr701) antibody (Life Technologies, 2 nM final concentration) in TR-FRET dilution buffer (Life Technologies) was added. The plates were allowed to incubate at ambient temperature for 1 h before being read on the EnVision reader (Perkin Elmer). Emission ratio signals (520 nm/495 nm) were recorded and utilized to calculate the percent inhibition values based on DMSO and background controls.
For dose-response analysis, percent inhibition data were plotted vs. compound concentrations, and IC50 values were determined from a 4-parameter robust fit model with the Prism software (GraphPad Software). Results were expressed as pIC50 (negative logarithm of IC50) and subsequently converted to pKi (negative logarithm of dissociation constant, Ki) using the Cheng-Prusoff equation.
(In general: In TR-FRET formats the signal depends on donor and acceptor labels being close together.)

Like-named read-outs stand apart in the source and are kept apart here.

Chain of Tyk2 (P29597 whole entry): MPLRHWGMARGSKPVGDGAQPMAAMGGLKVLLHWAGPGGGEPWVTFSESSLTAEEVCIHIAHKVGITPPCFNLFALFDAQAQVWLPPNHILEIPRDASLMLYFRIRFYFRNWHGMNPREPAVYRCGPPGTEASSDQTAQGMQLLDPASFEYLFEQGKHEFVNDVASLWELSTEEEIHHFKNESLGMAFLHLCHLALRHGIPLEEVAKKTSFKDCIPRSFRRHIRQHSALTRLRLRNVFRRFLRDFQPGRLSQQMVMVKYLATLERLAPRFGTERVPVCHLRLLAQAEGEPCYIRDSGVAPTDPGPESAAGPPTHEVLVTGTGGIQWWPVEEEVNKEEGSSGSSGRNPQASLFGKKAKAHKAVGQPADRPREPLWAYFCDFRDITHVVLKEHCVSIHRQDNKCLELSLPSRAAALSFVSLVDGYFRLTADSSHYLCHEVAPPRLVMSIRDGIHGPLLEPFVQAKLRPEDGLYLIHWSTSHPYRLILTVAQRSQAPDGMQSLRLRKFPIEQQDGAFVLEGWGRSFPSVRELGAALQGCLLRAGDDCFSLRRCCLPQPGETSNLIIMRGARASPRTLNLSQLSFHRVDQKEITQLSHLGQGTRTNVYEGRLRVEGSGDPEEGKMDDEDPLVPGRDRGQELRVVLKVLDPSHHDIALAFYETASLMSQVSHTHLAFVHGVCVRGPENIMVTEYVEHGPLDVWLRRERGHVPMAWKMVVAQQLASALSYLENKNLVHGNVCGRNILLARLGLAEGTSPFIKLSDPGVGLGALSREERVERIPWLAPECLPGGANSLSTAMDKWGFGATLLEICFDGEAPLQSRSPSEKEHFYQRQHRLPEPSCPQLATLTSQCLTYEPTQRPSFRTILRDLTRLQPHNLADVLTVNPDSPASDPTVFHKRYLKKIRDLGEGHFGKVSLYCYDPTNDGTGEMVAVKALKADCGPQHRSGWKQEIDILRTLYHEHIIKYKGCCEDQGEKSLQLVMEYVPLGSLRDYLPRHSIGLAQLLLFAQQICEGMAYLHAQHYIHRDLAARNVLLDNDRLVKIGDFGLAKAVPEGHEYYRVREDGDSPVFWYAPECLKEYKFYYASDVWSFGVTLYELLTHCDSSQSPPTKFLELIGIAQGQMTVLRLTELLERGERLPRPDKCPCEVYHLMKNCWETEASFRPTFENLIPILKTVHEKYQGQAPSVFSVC

Consider `CCc1cc(O)c(F)cc1-c1ccc2c(-c3nc4c([nH]3)CN(C(C)C)[C@H](C(=O)N3CC(N(C)C)C3)C4)n[nH]c2c1` [Example 8, (S)-(3-(dimethylamino)azetidin-1-yl)(2-(6-(2-ethyl-5-fluoro-4-hydroxyphenyl)-1H-indazol-3-yl)-5-isopropyl-4,5,6,7-tetrahydro-3H-imidazo[4,5-c]pyridin-6-yl)methanone], for which the IC50 in data set [1] is 100 nM. The Kp at 5 h in data set [2] (Balb/c, lung and plasma, lung ng/g to plasma ng/mL, mice, read-out: Lung to Plasma ratio at 5 hr) turned out to be 381. Moreover, the concentration at 5 h in data set [2] (lung, read-out: Lung Concentration (ng/g) at 5 hr) was 22100 ± 5550 ng/g; in data set [2] (plasma, read-out: Plasma Concentration (ng/mL) at 5 hr) it was 58 ± 17 ng/mL. For the same molecule, the “Tyk2 pKi” value at Tyk2 turned out to be 9.5.
